Assay results: patent publication US20250054582A1, “METHOD OF IDENTIFYING A SOLVENT FOR A MATRIKINE” (THE BOOTS COMPANY PLC, priority 2021, published 2025)
Peptide text beside a SMILES is read from it.

How the values were obtained:
[1] = HSPiP analysis: Hansen Solubility Sphere of the matrikine from solubility scores; format: physicochemical; set-up: δD / δP: unit not given here; conditions: for δD / δH / δP: Hansen Solubility Parameter of the peptide; for δD / δH / δP / R (Size of HSP Sphere): overall results summary; for δD value / δH value: in words, HSPiP fit of solubility scores; for radius: radius of the HSP sphere
Protocol: (§1) The HSP sphere of seven different matrikines was determined by using a range of reference solvents (solvents with known HSP spheres) to dissolve the matrikines. The reference solvents were then ranked based on their ability to dissolve the matrikines. A software package called Hansen Solubility Parameters in Practice (HSPiP) was then used to determine the HSPs of each of the matrikines.
The use of qualitative rankings of solubility phenomena makes it possible to define a spheroidal cluster in which the most compatible samples are contained.
The scores from 1 to 6 were entered into the HSPiP data form and then the software analyses the data to produce a Hansen diagram of the solubility sphere, alongside details of the solubility parameters and the goodness of the fit of the data to the sphere, in text format.

[2] = Qualitative solubility ranking of matrikines in reference solvents; format: physicochemical
Protocol: as §1
In general, a set of around 20 standard reference solvents was used to carry out preliminary investigations in solubility tests. Following this, additional/fine-tuning (FT) solvents were selected and used to are used to optimise the reliability and definition of the solubility parameters of the matrikines.
All samples were prepared under standard conditions, within an air-conditioned laboratory environment, at 20° C. and a standard pressure.
Usually, samples are prepared on the Formax High-throughput Formulation System, manufactured by Chemspeed. However due to the small sample size, the samples of this project were prepared manually using a single channel pipette for liquids and an analytical balance for solids.
Qualitative evaluation of the solubility of the matrikines within a range of different reference solvents was used. Samples were placed into six categories, according to the relative extent to which the matrikine dissolved in the solvent.
Between these two extremes sit the other four ranking-categories, whose typical descriptions can be found in table 1 below.

[3] = Franz cell skin explant penetration with 3D OrbiSIMS analysis; format: in vitro ADME, human
Protocol: For ex vivo analysis, full thickness human skin tissue was removed during cosmetic surgery from Caucasian female donors (aged 35-70). The explant was frozen immediately post-surgery, shipped and stored at −20° C. prior to use.
The tissue was then defrosted, cut and mounted, dermal side down, in a Franz-type static diffusion cell set-up (Franz, 1975), with an exposed surface area of 1.1 cm^2. Infinite doses of the cosmetic formulations were applied to the donor chamber, with the explant exposed to the formulations for 1 hour in a water bath set to 36.5° C. Sink conditions were maintained throughout the experiments.
After 1 hour, the Franz cell was dismantled, excess formulation was removed with a dry sponge and the skin explant was wiped with a sponge soaked in Teepol Solution (3% v/v). Next, the explant was dehydrated under vacuum at room temperature for 24 hours before 3D OrbiSIMS analysis […]
A 20 KeV Ar3000+ analysis beam with a diameter of 20 μm was used as the primary ion source. Samples were analysed at ambient temperature across a 400×400 μm area in positive polarity with sawtooth raster mode and a total crater size of 486×486 μm. […] Mass spectra were recorded at a resolution of 240,000 at m/z 200 in the mass range of 75 to 1,125 m/z. […]

[4] = blend Glycerol Carbonate:Dimethyl Formamide:1-Propanol 55:25:20%

SMILES	greatest contribution to the cohesive energy density [1]	δD [1]	δH [1]	δP [1]	δD value [1]	δH value [1]	R (Size of HSP Sphere) [1] [MPa^0.5]	radius [1] [units]	solubility over the reference solvents tested (in words) [2]	penetration into the skin tissues ([3]; formulation containing methyl gluceth-20 compared to glycerin only, 1 hour)	Pal-GHK peptide ion intensity in skin explant ([3]; formulation with glycerin+methyl gluceth-20 versus glycerin only, 1 hour in Franz cell, 3D OrbiSIMS)	dissolution (in words) ([2]; blend Propylene Carbonate:Propylene Glycol 65:35%)	dissolution (in words) ([2]; blend Propylene Glycol Monomethyl Ether:Propylene Carbonate 55:45%)	dissolution (in words) ([2]; blend Benzyl Alcohol:2-Propanol 80:20%)	dissolution (in words) [2, 4]	dissolution (in words) ([2]; solvent 2-PhenoxyEthanol)	dissolution (in words) ([2]; solvent N-Methyl Formamide)
CCCCCCCCCCCCCCCC(=O)N[C@@H](CCC(=O)O)C(=O)N[C@@H](CCCCN)C(=O)NCC(=O)N[C@@H](CC(=O)O)C(=O)O [Pal-EKGD] (HELM PEPTIDE1{[CCCCCCCCCCCCCCCC(=O)[*:2]].E.K.G.D}$$$$V2.0)	Dispersion forces	17.31	17.26	13.92	moderate	moderate	10.3	10.3									
CCCCCCCCCCCCCCCC(=O)NCC(=O)N[C@@H](Cc1c[nH]cn1)C(=O)N[C@@H](CCCCN)C(=O)O [Pal-GHK, N-Palmitoyl-Gly-His-Lys] (HELM PEPTIDE1{[CCCCCCCCCCCCCCCC(=O)[*:2]].G.H.K}$$$$V2.0)	Dispersion forces	17.83	11.22	6.57	moderate	low	3.5	3.5	No samples showed complete dissolution	penetrated quicker	more peptide ion present						
CCCCCCCCCCCCCCCC(=O)NCC(=O)N1CCC[C@H]1C(=O)N[C@@H](CCCCN)C(=O)NCC(=O)O [Pal-GPKG] (HELM PEPTIDE1{[CCCCCCCCCCCCCCCC(=O)[*:2]].G.P.K.G}$$$$V2.0)	Dispersion forces	17.82	17.73	10.55	moderate	moderate	8.3	8.3				did not dissolve	did not dissolve				
CCCCCCCCCCCCCCCC(=O)NCC(=O)N[C@@H](CCC(N)=O)C(=O)N1CCC[C@H]1C(=O)N[C@@H](CCCNC(=N)N)C(=O)O [Pal-GQPR, N-palmitoyl-Gly-Gln-Pro-Arg] (HELM PEPTIDE1{[CCCCCCCCCCCCCCCC(=O)[*:2]].G.Q.P.R}$$$$V2.0)														did not dissolve	did not dissolve	most interaction with the product without complete dissolution	complete dissolution
CCCCCCCCCCCCCCCC(=O)N[C@@H](CC(C)C)C(=O)N[C@@H](CO)C(=O)N[C@H](C(=O)N[C@@H](CC(=O)O)C(=O)O)C(C)C [Pal-LSVD] (HELM PEPTIDE1{[CCCCCCCCCCCCCCCC(=O)[*:2]].L.S.V.D}$$$$V2.0)	Dispersion forces	18.84	14.82	12.04	high	low	6.8	6.8	very limited solubility								
CCCCCCCCCCCCCCCC(=O)N[C@@H](CCC(N)=O)C(=O)N[C@H](C(=O)N[C@@H](C)C(=O)N[C@H](C(=O)O)C(C)C)[C@@H](C)O [Pal-QTAV] (HELM PEPTIDE1{[CCCCCCCCCCCCCCCC(=O)[*:2]].Q.T.A.V}$$$$V2.0)	Dispersion forces	17.61	10.95	10.66	moderate	low	6	6							didn't dissolve		
